According to PMC12584665, “In vitro and in vivo efficacy of vancomycin against Elizabethkingia species and the impact of increased vancomycin MICs” (Microbiology Spectrum, 2025):

Tested on: Elizabethkingia anophelis
Test: Murine neutropenic thigh infection model
Type: in vivo, C57BL/6J mice
Method: In vivo efficacy was assessed by wax moth (Galleria mellonella), murine pneumonia, and murine thigh infection models following the protocols of our previous study ([2]). The Animal Ethics Committee of Taiwan’s National Health Research Institutes approved the murine pneumonia and thigh infection models.
For the thigh infection model, seven-week-old C57BL/6J mice were rendered neutropenic by intraperitoneal injections of cyclophosphamide (Cytoxan; Bristol-Myers Squibb, Princeton, NJ, USA) 4 days (150 mg/kg) and 1 day (100 mg/kg) before bacterial inoculation. A 30 µL aliquot containing the E. anophelis (10^7 cfu) was injected into each of the two rear thighs. Vancomycin (25 mg/kg or 100 mg/kg, subcutaneous) or teicoplanin (50 mg/kg, intraperitoneal) was administered 2 h and 14 h after inoculation. Mice were sacrificed 24 h post-inoculation, and homogenized thigh tissue was plated in serial 10-fold dilutions on brain-heart infusion agar to determine bacterial counts. Each mouse, not each thigh, was considered an individual data point.

## CN[C@H](CC(C)C)C(=O)N[C@H]1C(=O)N[C@@H](CC(N)=O)C(=O)N[C@H]2C(=O)N[C@H]3C(=O)N[C@H](C(=O)N[C@H](C(=O)O)c4cc(O)cc(O)c4-c4cc3ccc4O)[C@H](O)c3ccc(c(Cl)c3)Oc3cc2cc(c3O[C@@H]2O[C@H](CO)[C@@H](O)[C@H](O)[C@H]2O[C@H]2C[C@](C)(N)[C@H](O)[C@H](C)O2)Oc2ccc(cc2Cl)[C@H]1O [Vancomycin]
25 mg/kg subcutaneous 2 h and 14 h after inoculation, neutropenic mice, 24 h, all clinical strains, 4 mice per group
  bacterial loads in thigh: modestly reduced the bacterial loads
100 mg/kg subcutaneous 2 h and 14 h after inoculation, neutropenic mice, 24 h, compared with 25 mg/kg
  bacterial load in thigh: greater reduction of bacterial load
100 mg/kg twice daily, infection by 2008S01-229-VAN-R compared to 2008S01-229
  reduction of bacterial load: hampered
